Where “and” joins values, the source holds several entries; their conditions need not be identical. Equal entries are not always repeated. *: point of attachment. Palmitoyl = CCCCCCCCCCCCCCCC(=O)*
How the values were obtained:
[1] = tested on: PA nanostructures; assay: 1H DOSY NMR of OC free and with PA; type: binding
Method: Binding of organic cations (OCs) to PA. Initial screening of interactions of five different OCs with PA was performed using ^1H NMR spectroscopy in solution (FIG. 53). Here, ^1H signals lineshape from the ^1H NMR spectra of OCs were compared and analyzed against the corresponding ^1H signals from OC-PA samples. It is expected that ^1H signals will experience broadening if binding is occurring. In all cases we observed significant broadening except for tetramethylammonium (OC4), indicating its poor binding to PA nanostructures. ^1H DOSY NMR measurements. Spectra were measured by monitoring the change in intensity of the corresponding resonances as a function of the field gradient strength g (G/cm). A 2D sequence was used for diffusion measurement based on stimulated echo and LED which applies bipolar gradient pulses for diffusion (2 spoil gradients) together with water presaturation during relaxation delay (ledbpgppr2s Bruker sequence). ^1H DOSY data were first processed in Topspin (Fourier transformation, phasing, and baseline correction) and then the peak intensities of the corresponding resonances were extracted and fitted to the Stejskal-Tanner equation (Eq. 1) to give the value of diffusion coefficient D (m^2/s). Solution ^1H DOSY NMR data were fit to Eq. 1 using NMRTools.jl{, #28110}. ^1H HRMAS DOSY NMR data were fit using the Eq. 1 using Dynamics Center 2.6.3 software.
In the Eq. 1, I and I0 are the signal intensities in the presence and absence of gradient pulses, respectively; γ is the gyromagnetic ratio; g and δ are the gradient strength and their duration, respectively; σ=0.9, is the shape factor for the SMSQ gradient used in the experiment; Δ is the time separation between the edges of the gradient pulses.

[2] = Anomalous small angle X-ray scattering (ASAXS) of Rb+ around PA and OC-PA; type: physicochemical
Description: An anomalous small angle X-ray scattering (ASAXS) was used to deduce the spatial distribution of Rb^+ surrounding charged, twisted peptide amphiphile (PA) bilayer. ASAXS relies on the measurements of the subtle changes in the X-ray energy-dependent scattered intensity profiles from the combined counterion (here, Rb^+)-supramolecular assembly system. These changes arise due to strong dispersion corrections [f′(E), f″(E)] to the form factor (scattering/absorption power) of an atom or an ion when the X-ray energy E is close to the binding energy of a core-shell electron in the atom or the ion [(here, Rb^+ K-edge EK=15.2 keV.
Scattered intensity profiles were measured from 1 mM PA in solutions containing either 66 mM RbCl or 50 mM RbCl and 16 mM OC—Cl at 4 X-ray energies below the Rb^+ K edge (Table 8). The non-resonant
The block height h=1 nm is empirically selected for two reasons. First, no artifacts are introduced by this artificial construct in the simulated scattered intensities over the relevant ASAXS q range of 0.05-2 nm^−1 (FIG. 42). Second, this choice keeps the simulations relatively fast. The distribution of Rb^+ is assumed to follow the shape of each parallelepiped block (FIG. 43C), and consists of the condensed Rb^+ layer, which is associated with the 2 ionizable amino acid groups in the outer periphery of the PA bilayer, followed by 12 layers with exponentially decaying Rb^+ concentration. The total number of Rb^+ associated is equal to the parallelepiped charge, which is calculated based on estimates of the area/molecule/leaflet (At=0.5 nm^2) from molecular dynamics (MD) simulations and a fit parameter for the fraction of amino acids that are in the ionized state (a). Based on this model the orientationally averaged non-resonant intensity and the cross-term are calculated and compared to the data in FIG. 42. […]
The SAXS profiles in FIG. 42 were analyzed using the discretized model in FIG. 43. […] The best-fit was then selected based on manual calculations of the differences between the measured and simulated profiles. […]

[3] = tested on: CA1 pyramidal neurons; assay: Whole-cell current clamp recordings in organotypic hippocampal slice cultures on PA or ICN layers; type: cell-based, rat; design: Rheobase: unit not given beside the values
Method: To physiologically dissect the unique responses activated by Na^+-ICN vs. K^+-ICN, we explored the effect of ICNs on the stability of the hippocampal network. This well-established ex vivo model allows for the ability to reliably acquire electrophysiological data using organotypic hippocampal slice cultures from neonatal rats. A PA or ICN layer was prepared on top of Millicell® cell culture inserts, inserted hippocampal organotypic slices (including the entorhinal cortex), and measured multiple electrophysiological parameters from CA1 pyramidal neurons at 6, 10, and 14 DIV using whole-cell current clamp recordings (FIG. 5A). Given the known heterogeneity of the hippocampus, the CA1 pyramidal neuron excitability was measured in the dorsal area.
All experiments were carried out according to the European and institutional guidelines for the care and use of laboratory animals (Council Directive 86/609/EEC and French National Research Council) and approved by the local health authority (Préfecture des Bouches-du-Rhône, Marseille). Young wild type Wistar rats (P5-P10), of either sex, were used to prepare organotypic hippocampal slice cultures. Animals were deeply anesthetized with isoflurane (5%) and killed by decapitation. The brain was removed and both hippocampi were individually dissected. Hippocampal slices (300 μm) were cut using a Vibratome (Leica, VT1200S, Wetzlar, Germany) in a sucrose based cutting solution kept at 3-4° C. containing for 1L: ultrapure water (988.5 mL), sucrose (97 g), NaHCO3 (2.18 g), D-glucose (1.8 g), KCl (0.1 g), CaCl2 1M (1 mL), MgCl2 1M (10 mL). Kynurenic acid and penicillin/streptomycin were added to the solution just before cutting to control cellular electrical activity and avoid contamination during slices preparation respectively. Only dorsal hippocampal slices were collected and placed on 20 mm latex membranes (Millicell, Millipore) inserted into 35 mm Petri dishes containing 1 mL of culture medium and maintained in an incubator at 34° C., 95% 02-5% CO2. The culture medium contained 25 mL MEM, 1.25 mL HBSS, 12.5 mL horse serum, 0.5 mL penicillin/streptomycin, 0.8 mL glucose (1 M), 0.1 mL ascorbic acid (1 mg/mL), 0.4 mL Hepes (1 M), 0.5 mL B27, and 8.95 mL sterile H2O. At least 1 h before collecting the slices, PAs control, OC-PA KCl or OC-PA NaCl were painted on the external surface of the latex membranes by dragging a pipette (50 μL of annealed PAs control or OC-PAs) to extrude a thin coat of material and let organotypic slice cultures grow on it. The culture medium was changed regularly (every 3 days). Organotypic hippocampal slice cultures were used at 6, 10 and 14 DIV to perform electrophysiological recordings and at 10 DIV to perform immunostainings.
To perform electrophysiological recordings, the Millicell membrane containing the slices treated with PAs or OC-PAs was cut with a scalpel and transferred to a recording chamber perfused with oxygenated artificial cerebrospinal fluid (aCSF). This solution was maintained at 31° C. and contained: 125 mM NaCl, 26 mM NaHCO3, 3 mM CaCl2, 2.5 mM KCl, 2 mM MgCl2, 0.8 mM NaH2PO4, 10 mM D-glucose. It was finally equilibrated with 95% O2-5% CO2. Neurons were visualized under an upright microscope (Olympus BX50WI) in phase contrast by infrared video-microscopy using a 60× immersion objective. Whole-cell patch-clamp recordings were obtained from CA1 pyramidal neurons in dorsal hippocampal organotypic cultures at DIV6,10 and 14. Patch-clamp pipettes (7-9 MΩ) were filled with a solution containing (mM): K-gluconate 120, KCl 20, HEPES 10, EGTA 0, MgCl2 2, Na2ATP 2, and NaGTP 0.3 (pH 7.4). CA1 pyramidal neurons were recorded in whole cell current clamp with a MultiClamp 700B amplifier (Axon Instruments), digitalized at 20 kHz with Digidata 1440A (Molecular Devices), low pass filtered at 10 kHz, and acquired with Clampex software (Molecular Devices). For current-clamp recordings, pipette capacitance was compensated, and the bridge was balanced. […]

Compound | diffusion constant D ([1]; 160.0 mM EMIMCl in PBS pH 7.4, free organic cation) | diffusion constant D ([1]; 160.0 mM EMIMCl in PBS pH 7.4 in the presence of 10.0 mM PA) | diffusion constant Db (slow diffusing) ([1]; HRMAS DOSY, pelleted OC-PA) | diffusion constant Df (fast diffusing) ([1]; HRMAS DOSY, pelleted OC-PA) | Rb^+ concentration near headgroups over bulk Rb^+ concentration ([2]; 1 mM PA in 66 mM RbCl) | degree of ionization a ([2]; 1 mM PA in 66 mM RbCl) | fraction charged (simulated intensities fitted to ASAXS) ([2]; Rb^+ counterions) [%] | rheobase, representative traces ([3]; 6 DIV) | rheobase, representative traces ([3]; 10 DIV) | rheobase, representative traces ([3]; 14 DIV) [pA] | Rheobase ([3]; 6 days in vitro) | Spikes evoked at 240 pA ([3]; 6 days in vitro) | Rheobase ([3]; 10 days in vitro) | Spikes evoked at 240 pA ([3]; 10 days in vitro) | Rheobase ([3]; 14 days in vitro) | Spikes evoked at 240 pA ([3]; 14 days in vitro)
CCn1cc[n+](C)c1.[Cl-] [OC, 1-ethyl-3-methyl imidazolium chloride] | (1.179±0.002)·10^−9 m^2s^−1 | (2.900±0.023)·10^−10 m^2s^−1 | (3.326±0.004)·10^−12 m^2s^−1 | (1.630±0.001)·10^−10 m^2s^−1 | – | – | – | – | – | – | – | – | – | – | – | –
C16-VVAAEE (Palmitoyl-VVAAEE-NH2) [peptide amphiphile monomer, C16=palmitoyl, assembles into one-dimensional nanostructures] | – | – | – | – | ~ 40 × | 0.5 | 50 | 90 pA and 80 pA | 140 pA and 130 pA | 130 | 95.7 ± 5.6 and 86 ± 4.7 | 16.4 ± 1.1 and 16.2 ± 0.9 | 109.3 ± 4.8 and 121.8 ± 7.7 | 13.2 ± 0.7 and 12.8 ± 0.9 | 127 ± 4.4 and 131 ± 5.4 | 11.1 ± 0.5 and 10.3 ± 0.9

From US20260234553A1, “COMPOSITIONS COMPRISING SUPRAMOLECULAR ASSEMBLIES OF PEPTIDE AMPHIPHILES AND ORGANIC CATIONS AND METHODS OF USE THEREOF” (Northwestern University, priority 2023, published 2026)
